Measurements: article PMC6123649, “Structural basis for specific inhibition of the highly sensitive ShHTL7 receptor” (EMBO Reports, 2018)
Values joined by “and” are separate entries in the source; they are usually repeats but may differ in a detail not shown here. Equal values may be shown once.

Key:
[1] = test system: Striga hermonthica seeds; test: Striga hermonthica germination bioassay; format: in vivo
Protocol: Striga hermonthica seeds were collected from Sorghum bicolor field in Sudan. For germination bioassays, Striga seeds were first sterilized and pre‐conditioned as described before 31. […] Triton X‐100/GR24 mixtures were applied (50 μl per disk) in four replicates. Corresponding volumes of GR24 and sterile MiliQ water were included as positive and negative control, respectively. The petri dishes were sealed with parafilm, enfolded with aluminum foil, and incubated for 48 h at 30°C. The germinated (seeds with radicle emerging through the seed coat) and non‐germinated Striga seeds were recorded under a binocular, and germination percentage was calculated.

[2] = test system: ShHTL7‐L143Y; test: YLG hydrolysis assay; format: biochemical, Striga hermonthica
Protocol: (§1) In vitro YLG hydrolysis assays were performed using 3 μM of ShHTL7, ShHTL7‐L143Y, AtD14, and OsD14 in a reaction buffer (1× PBS) with 0.1% dimethyl sulfoxide (DMSO) in a 100 μl volume on a 96‐well black plate (Greiner). The fluorescent intensity was measured by SpectraMax i3 (Molecular Devices) using an excitation wavelength of 480 nm and a detection wavelength of 520 nm. ShHTL7, ShHTL7‐L143Y, AtD14, and OsD14 were mixed with Triton X‐100, using serial dilutions to cover the Triton X‐100 concentration range from 5 μM until 4.87 nM. Protein‐Triton mixes were pre‐incubated for 30 min. 1 μM YLG (Tokyo Chemical Industry Co. Ltd.) was then added, and the assay was incubated for 60 min. The change in fluorescence observed over the course of 1 h incubation of YLG in buffer without protein was subtracted from the data collected in the presence of protein. The resulting relative fluorescence values were analyzed. The inhibitory curves and IC50 values were plotted using GraphPad (Prism 6) four‐parameter logistic curve. The rate of YLG hydrolysis by ShHTL7 was recorded following the above method at 10‐min interval for 2 h.

[3] = test system: Orobanche minor; parameters: method as in PMID 23915294; conditions: concentrations above 0.001%; cited from earlier work
[4] = target: T1, AtD14 (Arabidopsis thaliana, UniProt Q9SQR3); test: DSLS, aggregation temperature; format: binding; conditions: up to 100 μM of Triton
T1 construct: made in house; host or cells: E. coli BL21 (DE3)
T1 sequence (Q9SQR3 1-267): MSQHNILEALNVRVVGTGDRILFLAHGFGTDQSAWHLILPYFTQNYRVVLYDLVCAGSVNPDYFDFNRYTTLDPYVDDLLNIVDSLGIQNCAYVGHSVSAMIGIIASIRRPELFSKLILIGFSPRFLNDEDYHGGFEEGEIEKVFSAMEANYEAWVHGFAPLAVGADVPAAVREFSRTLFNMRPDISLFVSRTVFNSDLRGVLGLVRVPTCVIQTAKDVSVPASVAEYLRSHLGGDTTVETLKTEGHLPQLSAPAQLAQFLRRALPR
Protocol: (§2) The specific aggregation temperature, T agg, at which ShHTL7, ShHTL7L143Y, AtD14, and OsD14 aggregated in the presence or absence of Triton X‐100, GR24, and PAA was measured using DSLS on the Stargazer system (Harbinger Biotechnology and Engineering Corporation, Markham, Canada). Protein samples at a concentration of 10 μM were overlaid with mineral oil in a clear bottom 384‐well black plate (Corning) and heated from 20 to 95°C at 1°C/min; light scattering was detected by a CCD camera every 0.5°C in the presence or absence of varying concentrations of Triton X‐100, GR24, and PAA yielding the difference in aggregation temperature at a particular concentration from apoproteins (ΔT agg). Data were normalized, and ΔT agg plotted against the Triton X‐100, GR24, and PAA concentration. Resulting data were plotted to determine the change in T agg of all proteins when bound to Triton X‐100, GR24, and PAA using GraphPad (Prism 6).

[5] = target: T2, OsD14 (Oryza sativa subsp. japonica, UniProt Q10QA5); test: DSLS, aggregation temperature; format: binding; conditions: up to 100 μM of Triton
T2 construct: made in house; host or cells: E. coli BL21 (DE3)
T2 sequence (Q10QA5 1-318): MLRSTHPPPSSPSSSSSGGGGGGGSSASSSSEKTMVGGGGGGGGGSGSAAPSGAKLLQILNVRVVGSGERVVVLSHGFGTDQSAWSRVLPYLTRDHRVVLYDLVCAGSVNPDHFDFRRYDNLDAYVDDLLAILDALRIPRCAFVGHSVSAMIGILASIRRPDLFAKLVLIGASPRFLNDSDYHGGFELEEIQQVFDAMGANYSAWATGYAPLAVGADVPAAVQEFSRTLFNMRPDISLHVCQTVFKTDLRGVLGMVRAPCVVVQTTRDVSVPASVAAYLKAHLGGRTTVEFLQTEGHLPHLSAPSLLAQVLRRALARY
Protocol: as §2

[6] = target: T3, ShHTL7 (Striga hermonthica, UniProt A0A0M3PNA2); test: Yoshimulactone Green (YLG) hydrolysis competition assay; format: biochemical
T3 sequence (A0A0M3PNA2 1-271): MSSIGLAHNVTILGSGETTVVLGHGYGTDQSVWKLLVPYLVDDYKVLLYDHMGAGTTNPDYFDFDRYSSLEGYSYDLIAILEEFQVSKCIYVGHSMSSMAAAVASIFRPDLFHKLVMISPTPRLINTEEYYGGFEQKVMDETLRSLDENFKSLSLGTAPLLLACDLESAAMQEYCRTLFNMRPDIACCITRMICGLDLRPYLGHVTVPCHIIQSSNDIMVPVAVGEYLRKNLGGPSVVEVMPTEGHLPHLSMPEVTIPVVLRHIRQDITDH
Protocol: as §1, with “ShHTL7, ShHTL7‐L143Y, AtD14, and OsD14 were mixed with Triton X‐100, using serial dilutions to cover the Triton X‐100 concentration range from 5 μM until 4.87 nM.” left out

In the case of Triton X-100, the “reduction in GR24‐induced germination” value ([1]; 15 μM Triton, GR24 0.125–1 nM, 2 days) is reported as ~ 50% and 50%, the “reduction of Striga germination by Triton” value ([1]; in vivo) is reported as “up to 50%” and the “inhibition of hydrolysis activity of ShHTL7 L143Y” value [2] is reported as “did not inhibit”. For the same substance, the “effect on seed germination” value [3] was “hindered seed germination”, the “effect on T agg” value [4] was “failed to affect” and the “effect on T agg” value [5] was “failed to affect”. For the same substance, the IC50 ([6]; 3 μM ShHTL7, 1 μM YLG, pre‐incubation with compound, read-out: IC50, YLG hydrolysis by ShHTL7) was 470 ± 110 nM and the “fold lower IC50 than that reported for Soporidine” value ([6]; compared with non‐specific inhibitor Soporidine) was 25 fold.
